Data: article PMC9019100, “Development of NanoLuc-targeting protein degraders and a universal reporter system to benchmark tag-targeted degradation platforms” (Nature Communications, 2022)
“And” between values parts separate entries of the source, which are not always exact repeats. Identical values can stand only once. Like-named read-outs stand apart in the source and are kept apart here.

How the values were obtained:
MLKL-FKBP^F36V = MLKL-FKBP^F36V (Homo sapiens, UniProt P62942, F37V); type: cell-based; settings: 5 h, low nM concentrations
Method: All experiments were repeated independently three times, and a representative Fig. is shown.
All timepoint experiments were performed as reverse timepoints in order to harvest all cells at the same time. At the indicated time points cells were lysed in NuPAGE LDS lysis buffer (Invitrogen) diluted to 1× in DISC lysis buffer (20 mM Tris-HCl pH7.5, 150 mM NaCl, 2 mM EDTA pH 8.0, 1% Triton X-100, 10% glycerol, H20)) supplemented with β-Mercaptoethanol (2%), protease and phosphatase inhibitors. Lysates were run through polypropylene columns (Pierce) to shred DNA. […] Membranes were blocked in 5% skim milk (Devondale) in TBS-T (TBS, 0.1% Tween-20) for 1 h prior to immunoblotting with primary antibodies overnight at 4 °C. Unless stated otherwise, all primary antibodies were diluted in TBS-T (TBS, 0.1% Tween-20) containing 5% BSA (Sigma A8022) and 0.04% sodium azide: HaloTag (1:1000, Promega; G9211), NanoLuc (1:500, Promega; N7000), β-actin (1:20,000, Sigma; A-1798), MLKL (1:1000, produced in-house; 3H1 clone)[39], FKBP (1:1000, R&D systems; 422513), caspase-8 (1:1000, Proteintech; 13423-1-AP), Histone H3 (1:1000, Abcam; ab10799), Cadherin (1:1000, Cell Signalling Technologies; 4068 T). Membranes were washed 3 × 5–10 min in TBS-T (TBS, 0.1% Tween-20) prior to the addition of the appropriate secondary antibodies conjugated with horseradish peroxidase (Jaxon laboratories). […]

[1] = tested on: MLKL^−/− HT29 cells expressing MLKL-FKBP^F36V; type: cell-based; settings: for TNF+911+zVAD (PI exclusion): MLKL-/- + MLKL FKBPF36V, replicate columns
Method: (§3) Cell death was assessed by flow cytometric analysis of PI exclusion. […] Cell death was assessed by flow cytometric analysis of PI exclusion. […] Cell death was assessed by flow cytometric analysis of PI exclusion. e N = 4, f N = 3 independent experiments (symbols), EB represent mean ± SD. g Western from MLKL^−/−CASP8^−/− HT29 cells stably expressing the doxycycline-inducible C-terminal fusion protein, MLKL-NanoLuc (MLKL-NLuc) and constitutively expressing the C-terminal fusion protein caspase-8-FKBP^F36V. […] Cell death was assessed using an IncuCyte and Cytotox-Red uptake. N = 3 independent experiments, one representative experiment shown, EB represent mean ± SD.
(§4) Degrader compounds or a DMSO vehicle control were added for 5 h, as stated in the Fig. legends. Cells were detached using Trypsin-EDTA (Merck) and resuspended in cell supernatants containing 10 μg/mL propidium iodide (PI). PI exclusion analysis was performed using an LSR II flow cytometer (Becton Dickinson, NJ) with 10,000 single-cell events per sample. Flow cytometry data were analysed using WEASEL version 2.7 software (Frank Battye).

caspase-8-FKBP^F36V = target: T1, caspase-8-FKBP^F36V (Homo sapiens, UniProt P62942, F37V); type: cell-based; settings: 5 h
T1 construct: expressed in transfected cells; host or cells: MLKL-/-CASP8-/- HT29, constitutive expression

[2] = target: recombinant NanoLuc enzyme (Oplophorus gracilirostris, UniProt Q9GV45, A31E/A60N/A81I/F95D/I117V/K70R/L54V/L99Q/M102K/N193R/P142E/Q151K/Q38R/Q45L/V71I/Y165I); type: biochemical
[3] = tested on: MLKL^−/− HT29 cells expressing MLKL-NanoLuc; type: cell-based; settings: for Live cells (%PI negative) after TNF+911+zVAD: MLKL-/- + MLKL NanoLuc, independent experiments
Method: as §3, §4

Fibrillarin-NanoLuc = target: T2, Fibrillarin-NanoLuc (Oplophorus gracilirostris, UniProt Q9GV45, A31E/A60N/A81I/F95D/I117V/K70R/L54V/L99Q/M102K/N193R/P142E/Q151K/Q38R/Q45L/V71I/Y165I); assay: cell-based; settings: HEK-293T; 500 nM, 10 h; read-out: Dmax (densitometry)
T2 construct: endogenous in cells; host or cells: 293T, CRISPR/PITCh knock-in at the FBL locus

MLKL-NLuc = target: T3, MLKL-NLuc (Oplophorus gracilirostris, UniProt Q9GV45, A31E/A60N/A81I/F95D/I117V/K70R/L54V/L99Q/M102K/N193R/P142E/Q151K/Q38R/Q45L/V71I/Y165I); type: cell-based; settings: 5 h
T3 construct: expressed in transfected cells; host or cells: MLKL-/- HT29 (A12); MLKL-/-CASP8-/- HT29 (A24); doxycycline-inducible

MLKL-NanoLuc = target: T4, MLKL-NanoLuc (Oplophorus gracilirostris, UniProt Q9GV45, A31E/A60N/A81I/F95D/I117V/K70R/L54V/L99Q/M102K/N193R/P142E/Q151K/Q38R/Q45L/V71I/Y165I); assay: Western blot of MLKL^−/− HT29 cells expressing MLKL-NanoLuc; type: cell-based, human; settings: 62.5-500 nM, 5 h
T4 construct: expressed in transfected cells; host or cells: MLKL-/- HT29 (A12); MLKL-/-CASP8-/- HT29 (A24); doxycycline-inducible
Method: (§1) Cells were seeded in 24-well plates ±doxycycline (20 ng/mL for HEK293T, 40 ng/mL for HT29) and incubated overnight (16–24 h) prior to degrader treatments, as stated in the Fig. legends. All timepoint experiments were performed as reverse timepoints in order to harvest all cells at the same time. At the indicated time points cells were lysed in NuPAGE LDS lysis buffer (Invitrogen) diluted to 1× in DISC lysis buffer (20 mM Tris-HCl pH7.5, 150 mM NaCl, 2 mM EDTA pH 8.0, 1% Triton X-100, 10% glycerol, H20)) supplemented with β-Mercaptoethanol (2%), protease and phosphatase inhibitors. Lysates were run through polypropylene columns (Pierce) to shred DNA. […] Membranes were blocked in 5% skim milk (Devondale) in TBS-T (TBS, 0.1% Tween-20) for 1 h prior to immunoblotting with primary antibodies overnight at 4 °C. Unless stated otherwise, all primary antibodies were diluted in TBS-T (TBS, 0.1% Tween-20) containing 5% BSA (Sigma A8022) and 0.04% sodium azide: HaloTag (1:1000, Promega; G9211), NanoLuc (1:500, Promega; N7000), β-actin (1:20,000, Sigma; A-1798), MLKL (1:1000, produced in-house; 3H1 clone)[39], FKBP (1:1000, R&D systems; 422513), caspase-8 (1:1000, Proteintech; 13423-1-AP), Histone H3 (1:1000, Abcam; ab10799), Cadherin (1:1000, Cell Signalling Technologies; 4068 T). […]
(§2) NC4. […] Cell death was assessed by flow cytometric analysis of PI exclusion. […]

NanoLuc-SLC38A2 = target: T5, NanoLuc-SLC38A2 (Oplophorus gracilirostris, UniProt Q9GV45, A31E/A60N/A81I/F95D/I117V/K70R/L54V/L99Q/M102K/N193R/P142E/Q151K/Q38R/Q45L/V71I/Y165I); assay: Western blot of 293T cells expressing NanoLuc-SLC38A2; type: cell-based; settings: 125-500 nM, 5 h
T5 construct: expressed in transfected cells; host or cells: 293T, doxycycline-induced
Method: as §1, §2

[4] = 5 h pre-treatment, then TSZ 24 h

T2 sequence (Q9GV45 other isoform, or with tags, fused parts or gaps with the stated changes): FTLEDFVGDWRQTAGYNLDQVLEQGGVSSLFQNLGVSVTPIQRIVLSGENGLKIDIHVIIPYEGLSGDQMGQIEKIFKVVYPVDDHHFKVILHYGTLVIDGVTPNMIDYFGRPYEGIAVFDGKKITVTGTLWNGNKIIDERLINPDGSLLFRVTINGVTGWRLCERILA
Chain of recombinant NanoLuc enzyme (Q9GV45 other isoform, or with tags, fused parts or gaps with the stated changes): as above
T4 sequence (Q9GV45 other isoform, or with tags, fused parts or gaps with the stated changes): as above
T3 sequence (Q9GV45 other isoform, or with tags, fused parts or gaps with the stated changes): as above
T5 sequence (Q9GV45 other isoform, or with tags, fused parts or gaps with the stated changes): as above
Chain of MLKL-FKBP^F36V (P62942 whole entry F37V): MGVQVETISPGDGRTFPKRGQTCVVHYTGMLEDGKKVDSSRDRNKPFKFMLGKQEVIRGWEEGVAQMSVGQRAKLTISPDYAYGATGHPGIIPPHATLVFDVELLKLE
T1 sequence (P62942 whole entry F37V): as above

For `CC[C@H](C(=O)N1CCCC[C@H]1C(=O)O[C@H](CCc1ccc(OC)c(OC)c1)c1ccccc1OCC(=O)NCCCCCCC(=O)N[C@H](C(=O)N1C[C@H](O)C[C@H]1C(=O)N[C@@H](C)c1ccc(-c2scnc2C)cc1)C(C)(C)C)c1cc(OC)c(OC)c(OC)c1` [FV1], the “MLKL-FKBP^F36V protein level by Western blot” value (MLKL-FKBP^F36V) was “no detectable protein”, the “concentration sustaining cell survival over 24 h” value [1, 4] was 3.9 nM and the “TNF+911+zVAD (PI exclusion)” value ([1]; degrader 3.9nM) was 77.6 and 82.1 and 75.3. The “TNF+911+zVAD (PI exclusion)” value ([1]; degrader 7.8nM) was 84.5 and 86.7 and 79.8, the “TNF+911+zVAD (PI exclusion)” value ([1]; degrader 31.25nM) was 80.9 and 86.7 and 82.1 and the “TNF+911+zVAD (PI exclusion)” value ([1]; degrader 62.5nM) was 79.4 and 87 and 83.1. The “TNF+911+zVAD (PI exclusion)” value ([1]; degrader 250nM) was 80.6 and 84.5 and 80.8, the “TNF+911+zVAD (PI exclusion)” value ([1]; degrader 500nM) was 69.7 and 81.6 and 78.5 and the “TNF+911+zVAD (PI exclusion)” value ([1]; degrader 1000nM) was 63.8 and 77.3 and 74.7. For the same compound, the “depletion of caspase-8-FKBP^F36V” value (caspase-8-FKBP^F36V) was “could be depleted”.
In the case of `CCc1cccc(N(CC)C(=O)Cn2c(C(=O)NC3CCC(C(=O)NCCCCCCCC(=O)NCCCCNc4cccc5c4C(=O)N(C4CCC(=O)NC4=O)C5=O)CC3)cc3ccccc32)c1` (stereo not drawn) [NC4], the “reduced inhibition of NanoLuc enzymatic activity compared to the parent inhibitor (NanoLuc inhibitor 2)” value [2] is reported as ~ 30 fold, the “effect on MLKL-NanoLuc-driven necroptosis” value [3, 4] is reported as “sufficient to reduce MLKL-NanoLuc-driven necroptosis” and the “Live cells (%PI negative) after TNF+911+zVAD” value (“Live cells (%PI negative)” for short) ([3]; 31.25nM) is reported as 46.4 and 73.2 and 58.1. The “Live cells (%PI negative)” value ([3]; 62.5nM) was 53.4 and 72.4 and 68.5, the “Live cells (%PI negative)” value ([3]; 250nM) was 58.1 and 71.5 and 68.6 and the “Live cells (%PI negative)” value ([3]; 500nM) was 54.7 and 68.7 and 64.4. For the same compound, the “Live cells (%PI negative)” value ([3]; 1000nM) was 53.1 and 66.7 and 61.4, the Dmax at 0.5 µM (Fibrillarin-NanoLuc) was ~52.9% and the “depletion of MLKL-NLuc” value (MLKL-NLuc) was “could be depleted”. For the same compound, the “degradation of MLKL-NanoLuc, comparison of NanoTACs” value (MLKL-NanoLuc) was “most effective degradation profile” and the “NanoLuc-SLC38A2 level by Western blot” value (NanoLuc-SLC38A2) was “reduction in Nanoluc-SLC38A2”.
